From ChEMBL document CHEMBL1201862, “PubChem BioAssay data set” (2004)
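Each compound was tested at five concentrations against cells in 96-well plates for 48 hours. GI50: concentration for 50% inhibition of growth.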 The source made the active and inactive calls. Cut-off read from the data, not from the text of the source: active = GI50 up to about 1.1 µM and inactive = higher.

What was measured:
Assay in all cases: DTP human tumour cell line panel, 48 h
SK-MEL-5 = test system: SK-MEL-5
NCI-H23 = test system: NCI-H23
SF-268 = test system: SF-268
UACC-257 = test system: UACC-257
MOLT-4 = test system: MOLT-4
HCC 2998 = test system: HCC 2998
COLO 205 = test system: COLO 205
SK-OV-3 = test system: SK-OV-3
U-251 = test system: U-251
OVCAR-8 = test system: OVCAR-8
SK-MEL-28 = test system: SK-MEL-28
SN12C = test system: SN12C
NCI/ADR-RES = test system: NCI/ADR-RES
SNB-19 = test system: SNB-19
786-0 = test system: 786-0
RPMI-8226 = test system: RPMI-8226
SR = test system: SR
HCT-15 = test system: HCT-15
CAKI-1 = test system: CAKI-1
CCRF-CEM = test system: CCRF-CEM

SMILES	GI50 (SK-MEL-5)	GI50 (NCI-H23)	GI50 (SF-268)	GI50 (UACC-257)	GI50 (MOLT-4)	GI50 (HCC 2998)	GI50 (COLO 205)	GI50 (SK-OV-3)	GI50 (U-251)	GI50 (OVCAR-8)	GI50 (SK-MEL-28)	GI50 (SN12C)	GI50 (NCI/ADR-RES)	GI50 (SNB-19)	GI50 (786-0)	GI50 (RPMI-8226)	GI50 (SR)	GI50 (HCT-15)	GI50 (CAKI-1)	GI50 (CCRF-CEM)
CC(NC(=O)OC(C)(C)C)C(=O)NC(Cc1ccccc1)C(=O)NCC(=O)ON=C1CCCC1 (stereo not given)	> 100 µM (inactive)	> 100 µM (inactive)	> 100 µM (inactive)	> 100 µM (inactive)	41.9 µM (inactive)	89.7 µM (inactive)	> 100 µM (inactive)	> 100 µM (inactive)	68.1 µM (inactive)	> 100 µM (inactive)	> 100 µM (inactive)	> 100 µM (inactive)	> 100 µM (inactive)	> 100 µM (inactive)	> 100 µM (inactive)	97.5 µM (inactive)	31 µM (inactive)	> 100 µM	> 100 µM (inactive)	90.2 µM (inactive)
O=C(N(O)c1ccccc1Cl)C(O)(c1ccccc1)c1ccccc1	50.6 µM (inactive)	> 100 µM (inactive)	> 100 µM (inactive)	> 100 µM (inactive)	30.8 µM (inactive)	35.4 µM (inactive)	> 100 µM (inactive)	> 100 µM (inactive)	40.6 µM (inactive)	76.2 µM (inactive)	93.3 µM (inactive)	> 100 µM (inactive)	63.8 µM (inactive)	> 100 µM (inactive)	31.3 µM (inactive)	23.8 µM (inactive)	18.1 µM (inactive)	39.3 µM	30.2 µM (inactive)	15.4 µM (inactive)
CC[C@@]1(OC(=O)C(N)CCCCN)C(=O)OCc2c1cc1n(c2=O)Cc2cc3ccccc3nc2-1 (stereo not given in full)	0.0377 µM (active)	0.0219 µM (active)	0.0169 µM (active)	0.143 µM (active)	< 0.01 µM (active)	0.41 µM (active)	0.389 µM (active)	0.105 µM (active)	0.0161 µM (active)	0.0502 µM (active)	0.442 µM (active)	< 0.0149 µM (active)	0.0354 µM (active)	0.0176 µM (active)	0.0148 µM (active)	0.0327 µM (active)	< 0.01 µM (active)	0.248 µM	< 0.0152 µM (active)	< 0.01 µM (active)
OC(C/C(=N\N1CCCCC1)c1cccs1)(C(F)(F)F)C(F)(F)F	> 10 µM (inactive)	> 10 µM (inactive)	> 10 µM (inactive)	> 10 µM (inactive)	> 10 µM (inactive)	> 10 µM (inactive)	> 10 µM (inactive)	> 10 µM (inactive)	> 10 µM (inactive)	> 10 µM (inactive)	> 10 µM (inactive)	> 10 µM (inactive)	> 10 µM (inactive)	> 10 µM (inactive)	> 10 µM (inactive)	> 10 µM (inactive)	> 10 µM (inactive)	> 10 µM	> 10 µM (inactive)	> 10 µM (inactive)
COc1ccc(OC)c(/C=C/c2cnnc3ccccc23)c1	3.61 µM (inactive)	4.8 µM (inactive)	4.79 µM (inactive)	3.39 µM (inactive)	2.65 µM (inactive)	5.27 µM (inactive)	4.1 µM (inactive)	5.5 µM (inactive)	5.19 µM (inactive)	7.5 µM (inactive)	8.47 µM (inactive)	4.17 µM (inactive)	2.39 µM (inactive)	6.46 µM (inactive)	6.67 µM (inactive)	3.16 µM (inactive)	1.51 µM (inactive)	1.96 µM	4.61 µM (inactive)	3.38 µM (inactive)
COc1cccc(N2C(=O)CSC2c2cc(OC)c(OC)c(OC)c2)c1 (stereo not given)	19.8 µM (inactive)	29.2 µM (inactive)	> 100 µM (inactive)	20.9 µM (inactive)	29.8 µM (inactive)	22.7 µM (inactive)	23 µM (inactive)	26.7 µM (inactive)	34.8 µM (inactive)	36 µM (inactive)	62.2 µM (inactive)	44.1 µM (inactive)	26.5 µM (inactive)	23.1 µM (inactive)	28.9 µM (inactive)	29 µM (inactive)	5.75 µM (inactive)	20 µM	30.8 µM (inactive)	19.1 µM (inactive)
CC1=NN2C(=N)/C(=C/c3ccccc3)C(=O)N=C2S1	> 100 µM (inactive)	> 100 µM (inactive)	> 100 µM (inactive)	> 100 µM (inactive)	> 100 µM (inactive)	> 100 µM (inactive)	> 100 µM (inactive)	> 100 µM (inactive)	> 100 µM (inactive)	> 100 µM (inactive)	> 100 µM (inactive)	> 100 µM (inactive)	> 33.1 µM (inactive)	> 100 µM (inactive)	> 100 µM (inactive)	> 100 µM (inactive)	> 100 µM (inactive)	> 100 µM	> 100 µM (inactive)	> 100 µM (inactive)
[N-]=[N+]=NC1C(O)C(CO)OC1n1cnc2c(N)ncnc21 (stereo not given)	> 100 µM (inactive)	30.5 µM (inactive)	51.1 µM (inactive)	> 100 µM (inactive)	9.51 µM (inactive)	29.7 µM (inactive)	> 100 µM (inactive)	87.5 µM (inactive)	> 100 µM (inactive)	37.9 µM (inactive)	> 100 µM (inactive)	25.9 µM (inactive)	27.1 µM (inactive)	59.4 µM (inactive)	30.8 µM (inactive)	45.8 µM (inactive)	1.67 µM (inactive)	> 100 µM	40.9 µM (inactive)	10.1 µM (inactive)
Cc1ccc(NCCN(C)C)c2c(=O)c3cc(O)ccc3oc12	11.6 µM (inactive)	12.6 µM (inactive)	5.35 µM (inactive)	18.3 µM (inactive)	1.11 µM (active)	11.9 µM (inactive)	10.8 µM (inactive)	13.4 µM (inactive)	8.2 µM (inactive)	6.97 µM (inactive)	14.8 µM (inactive)	7.59 µM (inactive)	10.6 µM (inactive)	11.3 µM (inactive)	5.24 µM (inactive)	5.08 µM (inactive)	0.083 µM (active)	9.08 µM	10.6 µM (inactive)	2.28 µM (inactive)
OC1CC2CCC(C1)N2CCCN1c2ccccc2Sc2ccc(Cl)cc21 (stereo not given)	1.73 µM (inactive)	3.13 µM (inactive)	2.37 µM (inactive)	1.29 µM (inactive)	2.29 µM (inactive)	0.338 µM (active)	1.77 µM (inactive)	3.37 µM (inactive)	1.87 µM (inactive)	2.11 µM (inactive)	1.81 µM (inactive)	3.73 µM (inactive)	2.36 µM (inactive)	3.88 µM (inactive)	1.83 µM (inactive)	1.87 µM (inactive)	2.2 µM (inactive)	2.49 µM	3.01 µM (inactive)	1.94 µM (inactive)
